Experiments:
CDK1/Cyclin B = target: T1, CDK1/Cyclin B (Homo sapiens, UniProt P06493); test: Enzymatic assay for CDK1 (LANCE Ultra kinase assay, FRET based); type: biochemical; conditions: ATP at Km; read-out: CDK1 enzymatic activity IC50
T1 construct: purchased Invitrogen PR4768C
Method in brief: (§1)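 Purified CDK–cyclin enzyme, ATP at Km; ULight peptide substrate; TR-FRET via Eu anti-phospho-Ab; inhibition scored.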

CDK2/Cyclin A = target: T2, CDK2/Cyclin A (Homo sapiens, UniProt P24941); test: Enzymatic assay for CDK2 (LANCE Ultra kinase assay, FRET based); type: biochemical; conditions: ATP at Km
T2 construct: purchased Invitrogen PV6290
Method in brief: (§2)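 TR-FRET kinase assay at ATP Km with ULight-MBP peptide (68 nM) and Eu-anti-phospho-MBP antibody; CDK2/Cyclin A at […], CDK5/p25 at […]. 8-dose 4-fold compound dilutions; 60 min kinase reaction at 23° C., EDTA stop, 60 min detection, read at 615/665 nm.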

CDK5/p25 = target: T3, CDK5/p25 (Homo sapiens, UniProt Q00535); test: Enzymatic assay for CDK5 (LANCE Ultra kinase assay, FRET based); type: biochemical; conditions: ATP at Km
T3 construct: purchased Invitrogen PR8543B
T3 sequence (Q00535 whole entry): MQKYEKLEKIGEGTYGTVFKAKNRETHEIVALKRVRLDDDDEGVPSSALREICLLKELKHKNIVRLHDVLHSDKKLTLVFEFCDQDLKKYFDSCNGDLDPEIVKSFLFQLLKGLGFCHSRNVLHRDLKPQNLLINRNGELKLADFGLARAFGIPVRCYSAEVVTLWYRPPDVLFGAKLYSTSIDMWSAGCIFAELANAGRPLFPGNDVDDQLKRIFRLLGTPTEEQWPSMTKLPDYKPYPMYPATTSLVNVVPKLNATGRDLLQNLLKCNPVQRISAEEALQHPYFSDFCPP
T3 sequence (Q15078 99-307 partner limits assumed): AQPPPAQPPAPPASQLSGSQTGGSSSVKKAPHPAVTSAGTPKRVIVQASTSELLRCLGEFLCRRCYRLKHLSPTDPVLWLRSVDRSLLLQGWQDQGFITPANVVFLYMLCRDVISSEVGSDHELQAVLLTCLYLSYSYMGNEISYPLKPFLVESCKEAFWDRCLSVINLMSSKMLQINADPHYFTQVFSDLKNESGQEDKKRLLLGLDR
Method in brief: as §2

CDK7/Cyclin H/MNAT1 = target: T4, CDK7/Cyclin H/MNAT1 (Homo sapiens, UniProt P50613); test: Enzymatic assay for CDK7 (LANCE Ultra kinase assay, FRET based); type: biochemical; conditions: for IC50: ATP at Km
T4 construct: purchased Invitrogen PR6749B
T4 sequence (P50613 whole entry): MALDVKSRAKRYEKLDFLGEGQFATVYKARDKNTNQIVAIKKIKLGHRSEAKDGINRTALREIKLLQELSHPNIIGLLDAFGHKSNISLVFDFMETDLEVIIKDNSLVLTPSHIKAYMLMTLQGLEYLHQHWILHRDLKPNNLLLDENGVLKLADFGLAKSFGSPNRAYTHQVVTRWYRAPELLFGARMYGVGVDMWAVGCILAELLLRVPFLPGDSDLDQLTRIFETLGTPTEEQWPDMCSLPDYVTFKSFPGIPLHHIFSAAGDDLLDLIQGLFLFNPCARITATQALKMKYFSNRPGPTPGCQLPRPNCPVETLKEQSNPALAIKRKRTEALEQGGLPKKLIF
T4 sequence (P51946 whole entry partner): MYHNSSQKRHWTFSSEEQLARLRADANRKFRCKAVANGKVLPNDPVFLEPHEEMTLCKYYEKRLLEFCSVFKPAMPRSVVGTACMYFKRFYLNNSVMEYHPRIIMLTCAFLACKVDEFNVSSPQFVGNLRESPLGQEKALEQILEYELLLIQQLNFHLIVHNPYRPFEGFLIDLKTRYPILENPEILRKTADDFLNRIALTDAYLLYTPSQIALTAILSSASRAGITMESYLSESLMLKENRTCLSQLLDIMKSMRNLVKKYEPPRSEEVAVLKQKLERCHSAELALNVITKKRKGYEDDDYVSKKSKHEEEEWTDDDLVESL
T4 sequence (P51948 whole entry partner): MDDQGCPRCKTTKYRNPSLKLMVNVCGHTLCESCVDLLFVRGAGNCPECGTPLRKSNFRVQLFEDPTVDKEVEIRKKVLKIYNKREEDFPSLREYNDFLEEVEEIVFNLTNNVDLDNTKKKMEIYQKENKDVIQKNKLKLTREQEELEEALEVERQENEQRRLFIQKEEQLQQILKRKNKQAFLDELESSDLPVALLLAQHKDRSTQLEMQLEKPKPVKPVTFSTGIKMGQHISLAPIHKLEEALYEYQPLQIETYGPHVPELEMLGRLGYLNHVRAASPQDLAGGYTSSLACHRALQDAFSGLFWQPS
Method in brief: as §1

A2780 = A2780 viability assay (CellTiter-Glo, 72 hours); type: cell-based; conditions: Homo sapiens; A2780 cells
Method in brief: (§3)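 RPMI-1640/10% FBS; plate cells (MV4-11 1×10^4, OVCAR-3 5×10^3, A2780 1×10^3 per well); 24 h later add compound 0.0015–10 uM; 72 h, 37° C; CellTiter-Glo luminescence, duplicate wells.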

OVCAR-3 = OVCAR-3 viability assay (CellTiter-Glo, 72 hours); type: cell-based; conditions: Homo sapiens; OVCAR-3 cells
Method in brief: as §3

T1 sequence (P06493 whole entry): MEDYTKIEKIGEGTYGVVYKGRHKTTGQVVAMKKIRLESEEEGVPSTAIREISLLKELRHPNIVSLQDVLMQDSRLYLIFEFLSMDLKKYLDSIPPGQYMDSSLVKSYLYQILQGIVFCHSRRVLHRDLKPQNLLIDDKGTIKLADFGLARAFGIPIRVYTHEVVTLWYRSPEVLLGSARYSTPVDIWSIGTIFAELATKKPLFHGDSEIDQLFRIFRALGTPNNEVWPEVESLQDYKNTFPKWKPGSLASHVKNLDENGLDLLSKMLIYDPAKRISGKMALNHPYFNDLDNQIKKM
T1 sequence (P14635 whole entry partner): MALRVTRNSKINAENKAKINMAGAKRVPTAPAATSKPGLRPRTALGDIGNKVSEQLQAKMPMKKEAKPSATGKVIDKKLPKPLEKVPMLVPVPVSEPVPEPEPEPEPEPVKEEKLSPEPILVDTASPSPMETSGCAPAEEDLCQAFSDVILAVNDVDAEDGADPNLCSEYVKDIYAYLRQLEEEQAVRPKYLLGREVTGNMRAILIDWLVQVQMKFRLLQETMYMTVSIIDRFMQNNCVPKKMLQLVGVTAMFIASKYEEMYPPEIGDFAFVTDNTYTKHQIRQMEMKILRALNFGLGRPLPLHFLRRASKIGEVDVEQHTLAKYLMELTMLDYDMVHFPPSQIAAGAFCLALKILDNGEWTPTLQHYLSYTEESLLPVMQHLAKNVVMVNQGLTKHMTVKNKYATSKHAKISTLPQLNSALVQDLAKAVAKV

Row | Compound | IC50 (CDK1/Cyclin B) | IC50 (CDK2/Cyclin A) | IC50 (CDK5/p25) | IC50 (CDK7/Cyclin H/MNAT1) | CDK1/CDK7: Selectivity of CDK7 inhibition over CDK1 inhibition (CDK7/Cyclin H/MNAT1) | CDK2/CDK7: Selectivity of CDK7 inhibition over CDK2 inhibition (CDK7/Cyclin H/MNAT1) | CDK5/CDK7: Selectivity of CDK7 inhibition over CDK5 inhibition (CDK7/Cyclin H/MNAT1) | IC50 (A2780) | IC50 (OVCAR-3)
1 | C=C(F)C(=O)Nc1ccc2c(-c3ccccc3CNc3cc(NC[C@H]4CCNC[C@@H]4O)nc4c(C(C)C)cnn34)nccc2c1 [Compound 82] | > 1000 nM | > 1000 nM | > 1000 nM | < 100 nM | A (A indicates [fold] > 500) | A (A indicates [fold] > 500) | A (A indicates [fold] > 500) | < 1000 nM | < 1000 nM
2 | C=C(F)C(=O)Nc1ccc2c(-c3ccccc3CNc3nc(N4CCC(F)CC4)nc4c(C(C)C)cnn34)nccc2c1 [Compound 90] | > 1000 nM | > 1000 nM | > 1000 nM | 100 to 1000 nM | B (B indicates 50 < [fold] ≤ 500) | B (B indicates 50 < [fold] ≤ 500) | B (B indicates 50 < [fold] ≤ 500) | < 1000 nM | < 1000 nM
3 | C=CC(=O)Nc1cccc2ccc(-c3cccc(C)c3CNc3nc(N[C@H]4CC[C@H](OC)CC4)nc4c(C(C)C)cnn34)nc12 [Compound 112] | > 1000 nM | > 1000 nM | > 1000 nM | 100 to 1000 nM | B (B indicates 50 < [fold] ≤ 500) | B (B indicates 50 < [fold] ≤ 500) | B (B indicates 50 < [fold] ≤ 500) | < 1000 nM | < 1000 nM
4 | C=C(F)C(=O)Nc1ccc2c(-c3ccccc3CNc3nc(N4CCC(OC(F)(F)F)CC4)nc4c(C(C)C)cnn34)nccc2c1 [Compound 86] | > 1000 nM | > 1000 nM | > 1000 nM | > 1000 nM | C (C indicates [fold] ≤ 50) | C (C indicates [fold] ≤ 50) | C (C indicates [fold] ≤ 50) | 1000 to 10000 nM | < 1000 nM
5 | C=C(F)C(=O)Nc1ccc2c(-c3ccccc3CNc3nc(OC4CCC(C)(C)NC4)nc4c(C(C)C)cnn34)nccc2c1 (stereo not drawn) [Compound 177] | > 1000 nM | > 1000 nM | > 1000 nM | < 100 nM | A (A indicates [fold] > 500) | A (A indicates [fold] > 500) | A (A indicates [fold] > 500) | < 1000 nM | < 1000 nM
6 | CC(C)c1cnn2c(NCc3ccccc3-c3nccc4cc(NC(=O)/C=C/CN(C)C)ccc34)nc(N3CCC4(CCOC4)CC3)nc12 [Compound 117] | > 1000 nM | > 1000 nM | > 1000 nM | 100 to 1000 nM | B (B indicates 50 < [fold] ≤ 500) | B (B indicates 50 < [fold] ≤ 500) | B (B indicates 50 < [fold] ≤ 500) | < 1000 nM | < 1000 nM
7 | C=C(F)C(=O)Nc1ccc2c(-c3ccccc3CNc3nc(NC4CCC(OC)C4)nc4c(C(C)C)cnn34)nccc2c1 (single isomer, unassigned) [Compound 97] | > 1000 nM | > 1000 nM | > 1000 nM | 100 to 1000 nM | B (B indicates 50 < [fold] ≤ 500) | B (B indicates 50 < [fold] ≤ 500) | B (B indicates 50 < [fold] ≤ 500) | < 1000 nM | < 1000 nM
8 | C=C(F)C(=O)Nc1ccc2c(-c3ccccc3CNc3cc(N4CCC(OC)CC4)nc4c(C(C)C)cnn34)nccc2c1 [Compound 91] | > 1000 nM | > 1000 nM | > 1000 nM | 100 to 1000 nM | B (B indicates 50 < [fold] ≤ 500) | B (B indicates 50 < [fold] ≤ 500) | B (B indicates 50 < [fold] ≤ 500) | < 1000 nM | < 1000 nM
9 | CC(C)c1cnn2c(NCc3ccccc3-c3nccc4cc(NC(=O)/C=C/CN(C)C)ccc34)nc(N3CCC4(CC3)OCCO4)nc12 [Compound 110] | > 1000 nM | > 1000 nM | > 1000 nM | < 100 nM | B (B indicates 50 < [fold] ≤ 500) | B (B indicates 50 < [fold] ≤ 500) | B (B indicates 50 < [fold] ≤ 500) | < 1000 nM | < 1000 nM
10 | C=C(F)C(=O)Nc1cccc2ccc(-c3cccc(C)c3CNc3nc(N4CCC(OC)CC4)nc4c(C(C)C)cnn34)nc12 [Compound 93] | > 1000 nM | > 1000 nM | > 1000 nM | > 1000 nM | C (C indicates [fold] ≤ 50) | C (C indicates [fold] ≤ 50) | C (C indicates [fold] ≤ 50) | < 1000 nM | 1000 to 10000 nM
11 | C=C(F)C(=O)Nc1ccc2c(-c3ccccc3CNc3nc(N[C@@H]4CCCN(C)C4)nc4c(C(C)C)cnn34)nccc2c1 [Compound 173] | > 1000 nM | > 1000 nM | > 1000 nM | < 100 nM | A (A indicates [fold] > 500) | A (A indicates [fold] > 500) | A (A indicates [fold] > 500) | < 1000 nM | < 1000 nM
12 | CC(C)c1cnn2c(NCc3ccccc3-c3nccc4cc(NC(=O)/C=C/CN(C)C)ccc34)nc(N[C@H]3CC[C@H](C)NC3)nc12 [Compound 151] | > 1000 nM | > 1000 nM | > 1000 nM | < 100 nM | A (A indicates [fold] > 500) | A (A indicates [fold] > 500) | A (A indicates [fold] > 500) | < 1000 nM | < 1000 nM
13 | CC(C)c1cnn2c(NCc3ccccc3-c3nccc4cc(NC(=O)/C=C/CN(C)C)ccc34)nc(NC3CCC(F)(F)CC3)nc12 [Compound 147] | > 1000 nM | > 1000 nM | > 1000 nM | < 100 nM | A (A indicates [fold] > 500) | A (A indicates [fold] > 500) | A (A indicates [fold] > 500) | < 1000 nM | < 1000 nM
14 | CC(C)c1cnn2c(NCc3ccccc3-c3nccc4cc(NC(=O)/C=C/CN(C)C)ccc34)nc(N3C[C@H]4CC[C@@H](C3)O4)nc12 [Compound 102] | > 1000 nM | > 1000 nM | > 1000 nM | 100 to 1000 nM | B (B indicates 50 < [fold] ≤ 500) | B (B indicates 50 < [fold] ≤ 500) | B (B indicates 50 < [fold] ≤ 500) | < 1000 nM | < 1000 nM
